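1) Cells in 96-well plates. 2) Compound, 48 h, 5 concentrations. 3) Linear interpolation between surrounding doses. 4) Unreached endpoint = highest concentration. GI50 is the concentration that inhibits growth by half.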 Activity calls are given as the source filed them. Rule as the data show it: active = GI50 up to about 1.1 µM and inactive = higher.

Some test systems named below: RPMI-8226; SK-MEL-2; MOLT-4; 786-0; SNB-78; HT-29; SK-MEL-28; SNB-75; NCI-H460; ACHN; NCI-H522; IGROV-1; A498; T47D; NCI/ADR-RES; HOP-62; MDA-MB-231; MDA-MB-435; PC-3; HL-60.
Holding throughout (assay): growth of human tumour cells (NCI), 48 h

Consider `COc1ccc(C(=O)/C(=N/Nc2ccccc2)c2ccc(OC)cc2)cc1`, for which the GI50 in the assay with RPMI-8226 was 51.4 µM (inactive); in the assay with SK-MEL-2 it was > 100 µM (inactive); in the assay on MOLT-4 it was 9.66 µM (inactive); in the assay with 786-0, > 100 µM (inactive); in the assay with SNB-78 it was > 100 µM (inactive); in the assay with HT-29 it was 18.3 µM (inactive). Also, the GI50 in the assay with SK-MEL-28 was > 100 µM (inactive); in the assay with SNB-75 it was 27 µM (inactive); in the assay with NCI-H460, > 100 µM (inactive); with ACHN, 33.9 µM (inactive); in the assay with NCI-H522, 80.4 µM (inactive); in the assay with IGROV-1, > 100 µM (inactive).

Turning to `C[N+](C)([O-])CCC=C1c2ccccc2CCc2ccccc21`, the GI50 was 11.5 µM (inactive) with RPMI-8226; 21.5 µM (inactive) in the assay with A498; 18.5 µM (inactive) in the assay on SK-MEL-2; 17.2 µM (inactive) with MOLT-4; 4.79 µM (inactive) with 786-0; 22.2 µM (inactive) in the assay on T47D. Further, the GI50 in the assay with HT-29 is 22.3 µM (inactive); in the assay with SK-MEL-28, 33.5 µM (inactive); in the assay with NCI/ADR-RES it was 22 µM (inactive); in the assay with HOP-62, 15.6 µM (inactive); with SNB-75, 29.3 µM (inactive); in the assay on NCI-H460 it was 31.3 µM (inactive). Moreover, the GI50 in the assay on MDA-MB-231 is 30.7 µM (inactive); in the assay on MDA-MB-435, 15.7 µM (inactive); in the assay on PC-3 it was 24.7 µM (inactive); in the assay with HL-60, 12.6 µM (inactive); in the assay with ACHN, 35 µM (inactive); in the assay on NCI-H522, 16.6 µM (inactive). Further, the GI50 in the assay with IGROV-1 was 17.1 µM (inactive).

As for `CC(=O)C1=C(C)N(c2ccc(C)cc2)C2(O)C3=C(C(=O)c4ccccc4C3=O)C(O)=CC12Cl` (configuration not stated), the GI50 in the assay on RPMI-8226 is 6.5 µM (inactive); in the assay on A498 it was 3.15 µM (inactive); in the assay with SK-MEL-2, 8.53 µM (inactive); in the assay with MOLT-4, 26.7 µM (inactive); in the assay with 786-0, 25.4 µM (inactive); in the assay on T47D, 26.7 µM (inactive). In addition, the GI50 was 22.3 µM (inactive) with HT-29; 10.2 µM (inactive) in the assay with SK-MEL-28; 5.65 µM (inactive) in the assay with NCI/ADR-RES; 32.2 µM (inactive) in the assay on HOP-62; 21.9 µM (inactive) in the assay on SNB-75; 20.9 µM (inactive) in the assay on NCI-H460. Further, the GI50 with MDA-MB-231 was 31.8 µM (inactive); in the assay on MDA-MB-435, 3.79 µM (inactive); in the assay on PC-3, 8.85 µM (inactive); with HL-60, 4.31 µM (inactive); with ACHN, 15.4 µM (inactive); with NCI-H522, 6.14 µM (inactive). In addition, the GI50 in the assay on IGROV-1 was 11.1 µM (inactive).

With `CCCSc1ccc2[nH]c(N3C(=O)/C(=C/c4ccc(SC)cc4)N=C3c3ccccc3)cc2c1`, the GI50 with RPMI-8226 was 0.242 µM (active); in the assay on A498 it was 26.9 µM (inactive); with SK-MEL-2 it was 24.4 µM (inactive); in the assay with MOLT-4, 1.87 µM (inactive); in the assay on 786-0 it was 26.2 µM (inactive); in the assay on T47D, 32.1 µM (inactive). In addition, the GI50 is 22.7 µM (inactive) in the assay on HT-29; 34.3 µM (inactive) with SK-MEL-28; > 33 µM (inactive) with NCI/ADR-RES; 42.6 µM (inactive) in the assay on HOP-62; > 34.4 µM (inactive) with SNB-75; 18.3 µM (inactive) in the assay on NCI-H460. Besides, the GI50 in the assay on MDA-MB-231 is > 50 µM (inactive); in the assay with MDA-MB-435, 5.05 µM (inactive); with PC-3, 25.9 µM (inactive); in the assay with HL-60, 9.14 µM (inactive); in the assay with ACHN, > 50 µM (inactive); with NCI-H522, 16.1 µM (inactive). For the same compound, in the assay with IGROV-1, the GI50 is 29.2 µM (inactive).

In the case of `C#CCOC(=O)C(N)CCCNC(=N)N` (configuration not stated), the GI50 with RPMI-8226, in the assay on A498, in the assay on SK-MEL-2, in the assay on MOLT-4, in the assay with 786-0 and in the assay on T47D was > 100 µM (inactive) each time. Moreover, the GI50 in the assay on HT-29, with SK-MEL-28, in the assay on NCI/ADR-RES, in the assay with HOP-62, with SNB-75 and in the assay with NCI-H460 was > 100 µM (inactive) each time. Also, the GI50 in the assay with MDA-MB-231, with MDA-MB-435, in the assay with PC-3, in the assay on HL-60, in the assay with ACHN and with NCI-H522 was > 100 µM (inactive) in each case. Besides, the GI50 with IGROV-1 was > 100 µM (inactive).

Consider `Cc1nc2ccccc2c(=O)n1NC(=S)Nc1ccc(Cl)cc1[N+](=O)[O-]`, for which the GI50 with RPMI-8226, in the assay with A498, in the assay with SK-MEL-2, in the assay with MOLT-4, with 786-0 and in the assay with T47D was > 100 µM (inactive) in each case. The GI50 was > 100 µM (inactive) with HT-29; > 100 µM (inactive) in the assay with SK-MEL-28; > 100 µM (inactive) in the assay with NCI/ADR-RES; > 100 µM (inactive) in the assay on HOP-62; > 78.3 µM (inactive) in the assay on SNB-75; > 100 µM (inactive) in the assay with NCI-H460. Moreover, the GI50 with MDA-MB-231, in the assay on MDA-MB-435, in the assay on PC-3, with HL-60, with ACHN and in the assay with NCI-H522 was > 100 µM (inactive) each time. Further, in the assay with IGROV-1, the GI50 was > 100 µM (inactive).

With `O=S(=O)(/N=c1\[nH]c(-c2cc(O)c(O)c(O)c2)cs1)c1ccc(Cl)cc1Cl`, the GI50 in the assay with RPMI-8226 was 19.4 µM (inactive); in the assay with A498, 53.1 µM (inactive); in the assay on SK-MEL-2 it was 43.8 µM (inactive); with MOLT-4 it was 20.7 µM (inactive); in the assay on 786-0, 19.7 µM (inactive); in the assay with T47D it was 15.3 µM (inactive). The GI50 with HT-29 was 22.8 µM (inactive); with SK-MEL-28, > 100 µM (inactive); in the assay on NCI/ADR-RES it was 26.4 µM (inactive); in the assay on HOP-62 it was 17.9 µM (inactive); in the assay on SNB-75, 25.7 µM (inactive); in the assay with NCI-H460 it was 18.7 µM (inactive). Also, the GI50 in the assay on MDA-MB-231 is 21.3 µM (inactive); in the assay on MDA-MB-435, 22.2 µM (inactive); with PC-3, 34.5 µM (inactive); in the assay on HL-60 it was 41.8 µM (inactive); with ACHN it was 14.6 µM (inactive); in the assay on NCI-H522 it was 17.9 µM (inactive). In addition, the GI50 with IGROV-1 was 20.8 µM (inactive).

With `CNCC(SC)c1ccc(O)c(O)c1` (configuration not stated), the GI50 was 21.1 µM (inactive) in the assay with RPMI-8226; > 100 µM (inactive) in the assay with A498; > 100 µM (inactive) with SK-MEL-2; 17.2 µM (inactive) in the assay with MOLT-4; 18.6 µM (inactive) with 786-0; 23.6 µM (inactive) in the assay with T47D. Moreover, the GI50 in the assay with HT-29 was 30.7 µM (inactive); in the assay with SK-MEL-28 it was 53.2 µM (inactive); with NCI/ADR-RES, 34.9 µM (inactive); in the assay on HOP-62, 36.4 µM (inactive); with SNB-75, 28.8 µM (inactive); with NCI-H460, 16.7 µM (inactive). For the same compound, the GI50 is 28.2 µM (inactive) in the assay with MDA-MB-231; 32.1 µM (inactive) in the assay on MDA-MB-435; 69.2 µM (inactive) in the assay on PC-3; 12.9 µM (inactive) in the assay on HL-60; 17.7 µM (inactive) with ACHN; 13.7 µM (inactive) in the assay with NCI-H522. The GI50 in the assay with IGROV-1 was 34.3 µM (inactive).

As for `COC1=CC(=O)c2c(cc(COP(=O)(N(C)CCBr)N(C)CCBr)n2C)C1=O`, the GI50 was 0.385 µM (active) in the assay with RPMI-8226; 1.97 µM (inactive) with A498; 1.89 µM (inactive) in the assay on SK-MEL-2; < 0.0173 µM (active) with MOLT-4; < 0.0204 µM (active) in the assay with 786-0; 0.55 µM (active) in the assay on T47D. Also, the GI50 is 0.0413 µM (active) with HT-29; 1.59 µM (inactive) with SK-MEL-28; 1.24 µM (inactive) in the assay with NCI/ADR-RES; < 0.0322 µM (active) in the assay with HOP-62; 0.102 µM (active) in the assay with SNB-75; 0.0582 µM (active) in the assay with NCI-H460. In addition, the GI50 with MDA-MB-231 is 3.91 µM (inactive); in the assay on MDA-MB-435, 1.09 µM (active); in the assay with PC-3, 6.82 µM (inactive); in the assay on HL-60, 0.0543 µM (active); with ACHN, < 0.0108 µM (active); in the assay with NCI-H522 it was 0.281 µM (active). In addition, the GI50 with IGROV-1 was 2.31 µM (inactive).

On to `N#CC1=C(N)OC2=C(CCCc3ccc([N+](=O)[O-])cc32)C1c1ccc(Cl)cc1` (configuration not stated), for which the GI50 in the assay with RPMI-8226 was 4.33 µM (inactive); in the assay on A498, 5.73 µM (inactive); with SK-MEL-2, 13.4 µM (inactive); in the assay with MOLT-4, 3.21 µM (inactive); with 786-0, 4.84 µM (inactive); with T47D it was 3.78 µM (inactive). The GI50 was 4.1 µM (inactive) with HT-29; 25.8 µM (inactive) with SK-MEL-28; 6.28 µM (inactive) in the assay on NCI/ADR-RES; 19.7 µM (inactive) in the assay on HOP-62; 11.8 µM (inactive) in the assay with SNB-75; 3.83 µM (inactive) in the assay with NCI-H460. The GI50 in the assay on MDA-MB-231 is 7.91 µM (inactive); with MDA-MB-435 it was 5.92 µM (inactive); in the assay with PC-3, 3.94 µM (inactive); in the assay on HL-60, 1.89 µM (inactive); with ACHN, 4.59 µM (inactive); in the assay with NCI-H522, 6.41 µM (inactive). For the same compound, the GI50 with IGROV-1 is 8.71 µM (inactive).

For `CCOC(=O)C1(N)CCc2[nH][nH]c(=O)c2C1` (configuration not stated), the GI50 in the assay on RPMI-8226, in the assay with A498, in the assay on SK-MEL-2, in the assay with MOLT-4, in the assay with 786-0 and with T47D was > 100 µM (inactive) in each case. Also, the GI50 with HT-29, with SK-MEL-28, with NCI/ADR-RES, in the assay with HOP-62, with SNB-75 and with NCI-H460 was > 100 µM (inactive) in each case. In addition, the GI50 in the assay on MDA-MB-231, with MDA-MB-435, with PC-3, with HL-60, in the assay on ACHN and in the assay with NCI-H522 was > 100 µM (inactive) throughout. In addition, the GI50 with IGROV-1 was > 100 µM (inactive).

Values taken from ChEMBL document CHEMBL1201862, “PubChem BioAssay data set” (2004).
